Source: patent publication US6358885B1, “Substituted phenylheterocyclic herbicides” (Mississippi State University, priority 1992, dated 2002)

Legend:
[1] = tested on: wheat; assay: Test C preemergence/postemergence greenhouse plant response rating 0 to 100; type: in vivo, Triticum aestivum; conditions: POSTEMERGENCE; for Plant response rating, Wheat: 0 to 100 scale
Method in brief: (§1)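 Compounds in non-phytotoxic solvent applied preemergence to sandy loam one day after planting, postemergence at the 1–4 leaf stage, or to ~2.5 cm floodwater over silt loam.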

[2] = tested on: blackgrass; assay: Test B preemergence/postemergence greenhouse plant response rating 0 to 10; type: in vivo, Alopecurus myosuroides; conditions: for Plant response rating, Blackgrass: 0 to 10 scale
Method in brief: (§2)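 Test chemicals were sprayed onto freshly planted seed and, concurrently, onto young plants between the one and four leaf stage. After a twelve- to sixteen-day greenhouse period, each species was visually compared with untreated controls.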

[3] = tested on: crabgrass; assay: Test C preemergence/postemergence greenhouse plant response rating 0 to 100; type: in vivo, Digitaria sanguinalis; conditions: POSTEMERGENCE; for Plant response rating, Crabgrass: 0 to 100 scale
Method in brief: as §1

[4] = tested on: barley; assay: Test B preemergence/postemergence greenhouse plant response rating 0 to 10; type: in vivo, Hordeum vulgare; conditions: for Plant response rating, Barley: 0 to 10 scale
Method in brief: as §2

[5] = tested on: wild oat; assay: Test C preemergence/postemergence greenhouse plant response rating 0 to 100; type: in vivo, Avena fatua; conditions: POSTEMERGENCE; for Plant response rating, Wild oat: 0 to 100 scale
Method in brief: as §1

[6] = tested on: wheat; assay: Test B preemergence/postemergence greenhouse plant response rating 0 to 10; type: in vivo, Triticum aestivum; conditions: 0 to 10 scale
Method in brief: as §2

[7] = tested on: ryegrass; assay: Test C preemergence/postemergence greenhouse plant response rating 0 to 100; type: in vivo, Lolium multiflorum; conditions: POSTEMERGENCE; for Plant response rating Ryegrass: 0 to 100 scale
Method in brief: as §1

[8] = tested on: barnyardgrass; assay: Test C flood test plant response rating 0 to 100; type: in vivo, Echinochloa crus-galli; conditions: for Plant response rating (0 to 100), Barnyardgrass: under POSTEMERGENCE head (flood test species); for Plant response rating, Barnyardgrass: flood test species listed under POSTEMERGENCE, 0 to 100 scale
Text: The compounds evaluated in this test were formulated in a non-phytoxic solvent and applied to the soil surface before plant seedlings emerged (preemergence application), to water that covered the soil surface (flood application), and to plants that were in the one-to-four leaf stage (postemergence application). A sandy loam soil was used for the preemergence and postemergence tests, while a silt loam soil was used in the flood test. Water depth was approximately 2.5 cm for the flood test and was maintained at this level for the duration of the test. Plant species in the preemergence and postemergence tests consisted of barley (Hordeum vulgare), bedstraw (Galium aparine), blackgrass (Alopecurus myosuroides), chickweed (Stellaria media), corn (Zea mays), cotton (Gossypium hirsutum), crabgrass (Digitaria sanguinalis), downy brome (Bromus tectorum), giant foxtail (Setaria faberii), lambsquarters (Chenopodium album), morningglory (Ipomoea hederacea), pigweed ([…]), rape (Brassica napus), ryegrass (Lolium multiflorum), sorghum (Sorghum bicolor), soybean (Glycine max), speedwell (Veronica persica), sugar beet (Beta vulgaris), velvetleaf (Abutilon theophrasti), wheat (Triticum aestivum), wild buckwheat (Polygonum convolvulus), and wild oat (Avena fatua). All plant species were planted one day before application of the compound for the preemergence portion-of this test. Plantings of these species were adjusted to produce plants of appropriate size for the post-emergence portion of the test. […] All plant species were grown using normal greenhouse practices. Visual evaluations of injury expressed on treated plants, when compared to untreated controls, were recorded approximately fourteen to twenty one days after application of the test compound. […] A dash (-) response means no test result.

[9] = tested on: cotton; assay: Test B preemergence/postemergence greenhouse plant response rating 0 to 10; type: in vivo, Gossypium hirsutum; conditions: for Plant response rating, Cotton: 0 to 10 scale
Method in brief: as §2

[10] = tested on: rape; assay: Test C preemergence/postemergence greenhouse plant response rating 0 to 100; type: in vivo, Brassica napus; conditions: POSTEMERGENCE; for Plant response rating, Rape: 0 to 100 scale
Method in brief: as §1

[11] = tested on: sugar beet; assay: Test B preemergence/postemergence greenhouse plant response rating 0 to 10; type: in vivo, Beta vulgaris; conditions: 0 to 10 scale
Method in brief: as §2

[12] = tested on: sorghum; assay: Test C preemergence/postemergence greenhouse plant response rating 0 to 100; type: in vivo, Sorghum bicolor; conditions: POSTEMERGENCE; for Plant response rating, Sorghum: 0 to 100 scale
Method in brief: as §1

[13] = tested on: sorghum; assay: Test B preemergence/postemergence greenhouse plant response rating 0 to 10; type: in vivo, Sorghum bicolor; conditions: 0 to 10 scale
Method in brief: as §2

[14] = tested on: downy brome; assay: Test C preemergence/postemergence greenhouse plant response rating 0 to 100; type: in vivo, Bromus tectorum; conditions: POSTEMERGENCE; for Plant response rating Downy Brome: 0 to 100 scale
Method in brief: as §1

[15] = tested on: bedstraw; assay: Test B preemergence/postemergence greenhouse plant response rating 0 to 10; type: in vivo, Galium aparine; conditions: for Plant response rating, Bedstraw: 0 to 10 scale
Method in brief: as §2

[16] = tested on: wild oat; assay: as above; type: in vivo, Avena fatua; conditions: POSTEMERGENCE, 0 to 10 scale
Method in brief: as §2

[17] = tested on: wild buckwheat; assay: Test C preemergence/postemergence greenhouse plant response rating 0 to 100; type: in vivo, Polygonum convolvulus; conditions: POSTEMERGENCE; for Plant response rating, Wild buckwheat: 0 to 100 scale
Method in brief: as §1

[18] = tested on: lambsquarters; assay: Test B preemergence/postemergence greenhouse plant response rating 0 to 10; type: in vivo, Chenopodium album; conditions: 0 to 10 scale
Method in brief: as §2

COc1cc(-c2nn3c(c2Cl)CCCC3)c(F)cc1Cl [Compound 29]
Plant response rating, Wheat ([1]; 62 g/ha): 80 | Plant response rating, Wheat ([1]; 250 g/ha): 95 | Plant response rating (0 to 100), Wheat ([1]; Rate 4 g/ha): 20 | Plant response rating (0 to 100), Wheat ([1]; Rate 16 g/ha): 30 | Plant response rating (0 to 10 scale), Blackgrass ([2]; POSTEMERGENCE, Rate 50 g/ha): 3 | Plant response rating, Blackgrass ([2]; POSTEMERGENCE, Rate 200 g/ha): 6 | Plant response rating, Blackgrass ([2]; PREEMERGENCE, Rate 50 g/ha): 5 | Plant response rating, Blackgrass ([2]; Rate 200 g/ha, PREEMERGENCE): 7 | Plant response rating, Crabgrass ([3]; 62 g/ha): 20 | Plant response rating, Crabgrass ([3]; 250 g/ha): 50 | Plant response rating (0 to 100), Crabgrass ([3]; Rate 4 g/ha): 0 | Plant response rating (0 to 100), Crabgrass ([3]; Rate 16 g/ha): 20 | Plant response rating (0 to 10 scale), Barley ([4]; POSTEMERGENCE, Rate 50 g/ha): 5 | Plant response rating, Barley ([4]; POSTEMERGENCE, Rate 200 g/ha): 7 | Plant response rating, Barley ([4]; PREEMERGENCE, Rate 50 g/ha): 0 | Plant response rating, Barley ([4]; Rate 200 g/ha, PREEMERGENCE): 4 | Plant response rating, Wild oat ([5]; 62 g/ha): 60 | Plant response rating, Wild oat ([5]; 250 g/ha): 90 | Plant response rating (0 to 100), Wild oat ([5]; Rate 4 g/ha): 20 | Plant response rating (0 to 100), Wild oat ([5]; Rate 16 g/ha): 40 | Plant response rating, Wheat ([6]; POSTEMERGENCE, Rate 50 g/ha): 4 | Plant response rating, Wheat ([6]; PREEMERGENCE, Rate 50 g/ha): 0 | Plant response rating, Wheat ([6]; Rate 200 g/ha, POSTEMERGENCE): 6 | Plant response rating, Wheat ([6]; Rate 200 g/ha, PREEMERGENCE): 4 | Plant response rating Ryegrass ([7]; 62 g/ha): 70 | Plant response rating Ryegrass ([7]; 250 g/ha): 90 | Plant response rating (0 to 100), Ryegrass ([7]; Rate 4 g/ha): 30 | Plant response rating (0 to 100), Ryegrass ([7]; Rate 16 g/ha): 60 | Plant response rating (0 to 100), Barnyardgrass ([8]; Rate 4 g/ha): 100 | Plant response rating (0 to 100), Barnyardgrass ([8]; Rate 16 g/ha): 100 | Plant response rating, Barnyardgrass ([8]; 62 g/ha): 100 | Plant response rating, Barnyardgrass ([8]; 250 g/ha): 100 | Plant response rating (0 to 10 scale), Cotton ([9]; POSTEMERGENCE, Rate 50 g/ha): 10 | Plant response rating, Cotton ([9]; POSTEMERGENCE, Rate 200 g/ha): 10 | Plant response rating, Cotton ([9]; PREEMERGENCE, Rate 50 g/ha): 1 | Plant response rating, Cotton ([9]; Rate 200 g/ha, PREEMERGENCE): 7 | Plant response rating, Rape ([10]; 62 g/ha): 100 | Plant response rating, Rape ([10]; 250 g/ha): 100 | Plant response rating (0 to 100), Rape ([10]; Rate 4 g/ha): 90 | Plant response rating (0 to 100), Rape ([10]; Rate 16 g/ha): 100 | Plant response rating, Sugar beet ([11]; POSTEMERGENCE, Rate 50 g/ha): 10 | Plant response rating, Sugar beet ([11]; PREEMERGENCE, Rate 50 g/ha): 7 | Plant response rating, Sugar beet ([11]; Rate 200 g/ha, POSTEMERGENCE): 10 | Plant response rating, Sugar beet ([11]; Rate 200 g/ha, PREEMERGENCE): 10 | Plant response rating, Sorghum ([12]; 62 g/ha): 20 | Plant response rating, Sorghum ([12]; 250 g/ha): 50 | Plant response rating (0 to 100), Sorghum ([12]; Rate 4 g/ha): 0 | Plant response rating (0 to 100), Sorghum ([12]; Rate 16 g/ha): 0 | Plant response rating, Sorghum ([13]; POSTEMERGENCE, Rate 50 g/ha): 5 | Plant response rating, Sorghum ([13]; PREEMERGENCE, Rate 50 g/ha): 0 | Plant response rating, Sorghum ([13]; Rate 200 g/ha, POSTEMERGENCE): 6 | Plant response rating, Sorghum ([13]; Rate 200 g/ha, PREEMERGENCE): 1 | Plant response rating Downy Brome ([14]; 62 g/ha): 80 | Plant response rating Downy Brome ([14]; 250 g/ha): 95 | Plant response rating (0 to 100), Downy Brome ([14]; Rate 4 g/ha): 20 | Plant response rating (0 to 100), Downy Brome ([14]; Rate 16 g/ha): 60 | Plant response rating (0 to 10 scale), Bedstraw ([15]; POSTEMERGENCE, Rate 50 g/ha): 7 | Plant response rating, Bedstraw ([15]; POSTEMERGENCE, Rate 200 g/ha): 10 | Plant response rating, Bedstraw ([15]; PREEMERGENCE, Rate 50 g/ha): 7 | Plant response rating, Bedstraw ([15]; Rate 200 g/ha, PREEMERGENCE): 9 | Plant response rating, Wild oat ([16]; Rate 50 g/ha): 5 | Plant response rating, Wild oat ([16]; Rate 200 g/ha): 7 | Plant response rating, Wild buckwheat ([17]; 62 g/ha): 100 | Plant response rating, Wild buckwheat ([17]; 250 g/ha): 100 | Plant response rating (0 to 100), Wild buckwheat ([17]; Rate 4 g/ha): 80 | Plant response rating (0 to 100), Wild buckwheat ([17]; Rate 16 g/ha): 90 | Plant response rating, Lambsquarter ([18]; POSTEMERGENCE, Rate 50 g/ha): 10 | Plant response rating, Lambsquarter ([18]; PREEMERGENCE, Rate 50 g/ha): 10 | Plant response rating, Lambsquarter ([18]; Rate 200 g/ha, POSTEMERGENCE): 10 | Plant response rating, Lambsquarter ([18]; Rate 200 g/ha, PREEMERGENCE): 10
